Assay results: patent US8404694B2, “Aurora kinase modulators and method of use” (Amgen Inc., priority 2008, dated 2013)
pEC50, pIC50: −log10 of the molar value.

Experiments:
[1] = biological target: T1, AuroraA-TPX2 (Homo sapiens, UniProt O14965); assay: AuroraA-TPX2 Homogeneous Time Resolved Fluorescent (HTRF) kinase assay; assay type: biochemical; details: ATP about 1 μM, biotinylated PLK peptide, read-out: AurA_IC50—IP (Avg)
T1 construct: 20 μL of AuroraA-TPX2 KD GST; GST
T1 sequence (O14965 133-383 limits assumed): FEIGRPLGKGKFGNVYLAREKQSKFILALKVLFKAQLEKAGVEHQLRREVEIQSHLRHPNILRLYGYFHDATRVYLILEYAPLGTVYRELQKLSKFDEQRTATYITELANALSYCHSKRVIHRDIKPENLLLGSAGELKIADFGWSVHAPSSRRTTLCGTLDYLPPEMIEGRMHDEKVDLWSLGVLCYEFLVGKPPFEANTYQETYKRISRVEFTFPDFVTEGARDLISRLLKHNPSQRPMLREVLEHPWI
T1 sequence (Q9ULW0 1-747 partner): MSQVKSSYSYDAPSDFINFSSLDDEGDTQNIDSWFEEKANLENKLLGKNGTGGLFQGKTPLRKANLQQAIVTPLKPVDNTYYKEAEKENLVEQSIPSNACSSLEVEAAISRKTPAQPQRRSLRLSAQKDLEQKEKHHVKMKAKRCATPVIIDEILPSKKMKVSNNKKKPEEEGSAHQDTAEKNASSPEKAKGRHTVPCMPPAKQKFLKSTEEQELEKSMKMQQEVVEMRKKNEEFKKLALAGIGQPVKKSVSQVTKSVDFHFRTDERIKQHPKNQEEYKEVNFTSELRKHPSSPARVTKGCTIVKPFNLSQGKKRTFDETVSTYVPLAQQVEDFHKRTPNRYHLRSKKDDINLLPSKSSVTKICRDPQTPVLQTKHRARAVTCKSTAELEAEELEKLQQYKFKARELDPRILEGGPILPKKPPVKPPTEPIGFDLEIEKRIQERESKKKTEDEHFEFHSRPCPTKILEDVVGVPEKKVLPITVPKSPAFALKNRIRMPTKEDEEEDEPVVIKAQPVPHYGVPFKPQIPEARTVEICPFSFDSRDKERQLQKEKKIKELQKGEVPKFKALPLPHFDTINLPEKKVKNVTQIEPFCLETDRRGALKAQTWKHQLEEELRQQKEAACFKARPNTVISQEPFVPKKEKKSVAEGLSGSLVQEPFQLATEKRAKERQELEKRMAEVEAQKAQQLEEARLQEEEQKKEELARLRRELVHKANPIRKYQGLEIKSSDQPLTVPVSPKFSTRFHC
Protocol: AuroraA-TPX2-Homogeneous Time Resolved Fluorescent (HTRF) Kinase Assay:
The Aurora-A HTRF assay begins with Aurora-A in the presence of ATP phosphorylating the biotinylated peptide PLK. The reaction incubates for about 120 min. Detection reagents are added to quench the reaction. These agents stop the reaction by diluting out the enzyme and chelating the metals due to the presence of EDTA. After addition, the assay is incubated overnight to allow the detection reagents to equilibrate.
The AuroraA HTRF assay comprises 1 μL of compound in 100% DMSO, 20 μL of ATP and biotinylated PLK, and 20 μL of AuroraA-TPX2 KD GST for a final volume of about 41 μL. The final concentration of PLK is about 1 μM. The final concentration of ATP is about 1 μM (Km(app)=1 μM+/−0.1) and the final concentration of AuroraA is about 5 nM. Buffer conditions are as follows: 60 mM HEPES pH 7.5, 25 mM NaCl, 10 mM MgCl, 2 mM DTT, 0.05% BSA.
(§1) The assay is quenched and stopped with 160 μL of detection reagent. Detection reagents are as follows: Buffer made of 50 mM Tris, pH 7.5, 100 mM NaCl, 3 mM EDTA, 0.05% BSA, 0.1% Tween20. Added to this buffer prior to reading is Steptavidin allophycocyanin (SA-APC) at a final conc in the assay of 0.0005 mg/mL, and europilated anti-phosphoPLK Ab (Eu-anti-PLK) at a final conc of 0.02 nM.
(§2) The assay plate is read in either a Discovery or a RubyStar. The eu-anti-PLK is excited at 320 nm and emits at 615 nm to excite the SA-APC which in turn emits at 655 nm. The ratio of SA-APC at 655 nm (excited due to close proximity to the Eu-anti-PLK because of phosphorylation of the peptide) to free Eu-anti-PLK at 615 nm will give substrate phosphorylation.
(§3) Many of the Examples described herein were tested, and found to be active compounds. Table I includes related biological data, which may be interpreted using the activity gauge below: […]

[2] = biological target: T2, AuroraB (Homo sapiens, UniProt Q96GD4); assay: AuroraB Homogeneous Time Resolved Fluorescent (HTRF) kinase assay; assay type: biochemical; details: ATP 23 μM, biotinylated Histone H3 peptide, read-out: AurB_IC50—IP (Avg)
T2 construct: 20 μL of AuroraB FL His; His
T2 sequence (Q96GD4 whole entry): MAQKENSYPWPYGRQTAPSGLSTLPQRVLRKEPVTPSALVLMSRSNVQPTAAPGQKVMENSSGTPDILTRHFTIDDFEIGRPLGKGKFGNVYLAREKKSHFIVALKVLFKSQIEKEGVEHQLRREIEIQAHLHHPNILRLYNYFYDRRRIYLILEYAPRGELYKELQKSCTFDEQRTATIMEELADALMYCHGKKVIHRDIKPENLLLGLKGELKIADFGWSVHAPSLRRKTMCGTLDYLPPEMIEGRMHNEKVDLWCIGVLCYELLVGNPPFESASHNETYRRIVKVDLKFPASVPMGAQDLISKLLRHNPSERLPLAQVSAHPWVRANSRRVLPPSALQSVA
Protocol: AuroraB-Homogeneous Time Resolved Fluorescent (HTRF) Kinase Assay:
The AuroraB HTRF assay begins with AuroraB in the presence of ATP phosphorylating the biotinylated peptide Histone H3. The reaction incubates for about 90 min. the reaction is quenched by addition of detection reagents, which stop the reaction by diluting out the enzyme and chelating the metals due to the presence of EDTA. After addition, the assay is incubated for about 60 min to allow detection reagents to equilibrate.
The AuroraB HTRF assay comprises 1 μL of compound in 100% DMSO, 20 μL of ATP and biotinylated Histone H3, and 20 μL of AuroraB FL His for a final volume of 41 μL. The final concentration of Histone H3 is 0.1 μM. The final concentration of ATP is 23 μM (Km(app)=23 μM+/−2.6) and the final concentration of AuroraB is 400 pM. Buffer conditions are as follows: 50 mM HEPES pH 7.5, 5 mM NaCl, 0.5 mM MgCl, 0.5 mM MnCl, 2 mM DTT, 0.05% BSA.
as §1, with “0.001” for “0.0005”, “anti-phosphoHistoneH3” for “anti-phosphoPLK”, “(Eu-anti-His H3)” for “(Eu-anti-PLK)”, “0.064” for “0.02”
as §2, with “eu-anti-His H3” for “eu-anti-PLK”, “Eu-anti-His H3” for “Eu-anti-PLK”
as §3

[3] = tested on: HeLa cells; assay: HeLa cell 24 hr ploidy assay; assay type: cell-based; details: Homo sapiens, 24 hrs treatment, DNA content (ploidy), read-out: 24 h_4N Ploidy EC50—IP (Avg)
Protocol: HeLa Cell 24 hr Ploidy Assay Protocol
The purpose of this assay is to evaluate the ability of selected individual compounds to induce Deoxyribonucleic acid (DNA) content (ploidy) in cells thought failed cell division. Cell cycle analysis is a rapid and efficient way to evaluate the status of DNA content (ploidy) of a given cell. HeLa cells (1×10^4 HeLa cells/well) in 100 ul of media (MEM+10% FBS) were plated in 96-well plates (Packard View) and cultured for 24 hrs at 37° C. maintained in a 5% CO2 atmosphere. The following day, cells were treated for 24 hrs with inhibitor compounds (10 pt. Dose ranging from 0.0024-1.25 umol/L). The compounds were serially diluted in DMSO (0.25% final concentration). The cells were fixed (3.7% Formaldehyde and 1% glutaraldehyde) and permeabilized (1×PBS with 1% BSA and 0.2% Triton X-100) in preparation for nuclear staining. The well plates were stained for 45 minutes at RT in the dark using Hoechest 33342 nuclear stain at 0.5 ug·ml (Stock of 10 mg/ml, Invitrogen, CA, Cat # H3570). The nuclear stain was removed by aspiration and the cells were washed with wash buffer. A Cellomics Array Scan Vti plate reader was used to acquire the DNA ploidy data of the cells using Cell Cycle bioapplication. Numbers for each of “valid cell count/well”, “% of 4N cells” and “% of >4Ncells” were calculated with the assistance of an Activity Base 5.1ca software and dose curves were generated using an XLFit software. With XLFit, final EC50 IP and EC50 transit values, as well as the Max and Min, were calculated for each curve. Many of the Examples described herein were tested, and fund to be active compounds. Table I includes related biological data in the 24 h cell-ploidy content assay, which may be interpreted using the activity gauge below: […]

Row | pIC50 [1] | pIC50 [2] | pEC50 [3] | SMILES
1 | > 7.00 | > 7.00 | > 7.00 | COCCOc1cc2nccc(Sc3ccc(Nc4nnc(-c5ccc(Cl)cc5)c5ccccc45)cc3)n2n1 [Example 6, 4-(4-Chlorophenyl)-N-(4-(2-(2-methoxyethoxy)pyrazolo[1,5-a]pyrimidin-7-ylthio)phenyl)phthalazin-1-amine]
2 | < 5.60 | > 7.00 | 6.30 to 7.00 | Clc1ccc(-c2nnc(Nc3ccc(Sc4ncnn5cccc45)cc3)c3ccccc23)cc1 [Example 25, 4-(4-chlorophenyl)-N-(4-(pyrrolo[2,1-f][1,2,4]triazin-4-ylthio)phenyl)-1-phthalazinamine]
3 | 5.60 to 6.30 | > 7.00 | 5.60 to 6.30 | Clc1ccc(-c2nnc(Nc3ccc(Oc4ncnn5cccc45)cc3)c3ccccc23)cc1 [Example 3, 4-(4-Chlorophenyl)-N-(4-(pyrrolo[2,1-f][1,2,4]triazin-4-yloxy)phenyl)-1-phthalazinamine]
